For one molecule, inherent viscosity stability results are on record in EP1081186A1, “Stabilized aqueous acrylamide polymer composition and photographic element containing the composition” (EASTMAN KODAK COMPANY (a New Jersey corporation), priority 1999, dated 2001).

SMILES strings stand for the structures.

This data set in a line: Inherent viscosity stability of aqueous acrylamide polymer solutions on keeping (capillary viscometer). It is filed as physicochemical. Particulars: 0.33 % added to 15 % copolymer solution; at room temperature and at 50°C; compared with isopropanol. As for the experimental part: In the following examples the inherent viscosities of the solutions were measured in a capillary viscometer at a polymer concentration of 0.25 g/dl using aqueous 0.1M sodium sulfate as the solvent. The measurements were carried out at a temperature of 25 degrees C. Inherent viscosity (I.V.) is calculated as: I.V. = ln( t / t0 )/c where t is the polymer solution flow time through the capillary, t0 is the solvent flow time, and c is the polymer concentration. [formula]
Initial Inherent Viscosities ranged from 2.00 to 2.12 dL/g. Percentage Change was defined with the following equation: %Change=(I.V.(t)-I.V.(0))/(I.V.(0))× 100 [formula] where I.V.(0) is the initial inherent viscosity and I.V.(t) is the inherent viscosity of the polymer at time t.
Initial Inherent Viscosities range from 1.90 to 2.00 dL/g. The I.V. change is determined as previously defined.

`CC(C)(C)c1cccc(O)c1O` [t-butyl catechol]: the inherent viscosity stability entry is listed as “equal to or better than ten times the concentration of isopropanol”.
